Assay results taken from patent US20130172246A1, “INSULIN GLARGINE VERSUS METFORMIN FOR THE FIRST-LINE TREATMENT OF EARLY TYPE-2 DIABETES” (priority 2011, published 2013).

Tested on: type 2 diabetes patients
Test: Parameters of beta-cell function (insulin, proinsulin, C-peptide, HOMA) fasting and 2 h after test meal
Assay type: in vivo, human
Settings: for ratio of proinsulin to C-peptide: after treatment, indicating improvement in beta-cell function; for Insulin-C-peptide ratio - change, 2 h after test meal / Insulin-C-peptide ratio - change, Fasting / Proinsulin-C-peptide ratio - change, 2 h after test meal / Proinsulin-C-peptide ratio - change, Fasting / HOMA - change / Insulin-proinsulin ratio - change, 2 h after test meal / Insulin-proinsulin ratio - change, Fasting / C-peptide - change, 2 h after test meal / C-peptide - change, Fasting / Insulin - change, 2 h after test meal / Insulin - change, Fasting / Proinsulin - change, 2 h after test meal / Proinsulin - change, Fasting / Insulin-C-peptide ratio - visit 8, 2 h after test meal / Insulin-C-peptide ratio - visit 8, Fasting / Proinsulin-C-peptide ratio - visit 8, 2 h after test meal / Proinsulin-C-peptide ratio - visit 8, Fasting / HOMA - visit 8 / Insulin-proinsulin ratio - visit 8, 2 h after test meal / Insulin-proinsulin ratio - visit 8, Fasting / C-peptide - visit 8, 2 h after test meal / C-peptide - visit 8, Fasting / Insulin - visit 8, 2 h after test meal / Insulin - visit 8, Fasting / Proinsulin - visit 8, 2 h after test meal / Proinsulin - visit 8, Fasting: per protocol; for Insulin-C-peptide ratio - change, 2 h after test meal / Insulin-C-peptide ratio - change, Fasting / Proinsulin-C-peptide ratio - change, 2 h after test meal / Proinsulin-C-peptide ratio - change, Fasting / HOMA - change / Insulin-proinsulin ratio - change, 2 h after test meal / Insulin-proinsulin ratio - change, Fasting / C-peptide - change, 2 h after test meal / C-peptide - change, Fasting / Insulin - change, 2 h after test meal / Insulin - change, Fasting / Proinsulin - change, 2 h after test meal / Proinsulin - change, Fasting: change visit 1 to visit 8; for Insulin-C-peptide ratio - change, 2 h after test meal / Insulin-C-peptide ratio - change, Fasting / Proinsulin-C-peptide ratio - change, 2 h after test meal / Proinsulin-C-peptide ratio - change, Fasting / Insulin-C-peptide ratio - visit 8, 2 h after test meal / Insulin-C-peptide ratio - visit 8, Fasting / Proinsulin-C-peptide ratio - visit 8, 2 h after test meal / Proinsulin-C-peptide ratio - visit 8, Fasting: mean; for HOMA - change / Insulin-proinsulin ratio - change, 2 h after test meal / Insulin-proinsulin ratio - change, Fasting / C-peptide - change, 2 h after test meal / C-peptide - change, Fasting / Insulin - change, 2 h after test meal / Insulin - change, Fasting / Proinsulin - change, 2 h after test meal / Proinsulin - change, Fasting / HOMA - visit 8 / Insulin-proinsulin ratio - visit 8, 2 h after test meal / Insulin-proinsulin ratio - visit 8, Fasting / C-peptide - visit 8, 2 h after test meal / C-peptide - visit 8, Fasting / Insulin - visit 8, 2 h after test meal / Insulin - visit 8, Fasting / Proinsulin - visit 8, 2 h after test meal / Proinsulin - visit 8, Fasting: mean (SD); for C-peptide - change, 2 h after test meal / C-peptide - change, Fasting / Insulin - change, 2 h after test meal / Insulin - change, Fasting / Proinsulin - change, 2 h after test meal / Proinsulin - change, Fasting / C-peptide - visit 8, 2 h after test meal / C-peptide - visit 8, Fasting / Insulin - visit 8, 2 h after test meal / Insulin - visit 8, Fasting / Proinsulin - visit 8, 2 h after test meal / Proinsulin - visit 8, Fasting: unit as in Table 4; for Insulin-C-peptide ratio - visit 8, 2 h after test meal / Insulin-C-peptide ratio - visit 8, Fasting / Proinsulin-C-peptide ratio - visit 8, 2 h after test meal / Proinsulin-C-peptide ratio - visit 8, Fasting / HOMA - visit 8 / Insulin-proinsulin ratio - visit 8, 2 h after test meal / Insulin-proinsulin ratio - visit 8, Fasting / C-peptide - visit 8, 2 h after test meal / C-peptide - visit 8, Fasting / Insulin - visit 8, 2 h after test meal / Insulin - visit 8, Fasting / Proinsulin - visit 8, 2 h after test meal / Proinsulin - visit 8, Fasting: week 36
Method: Below is a list of the various target parameters: • Protection of the β-cells by early insulin therapy • C-Peptide (fasting and 2 h pp after TM) • Proinsulin (fasting and 2 h pp after TM) • Glycemic variability: • Glycemic load • Standard deviation (SD), • MAGE • HbA1c • Anti-inflammatory action of insulin: • Biomarkers of subclinical inflammation (fasting and 2 h pp) • hsCRP, • PAI-1, • Leukocyte count • Back-up samples for determining • MMP9 • ADMA • Adiponectin • Effect on endothelial function • Endothelial function at ball of thumb using laser Doppler (O2C) • Effect on renal function • Microalbuminuria (albumin/creatinine ratio) • Serum creatinine • Risk of hypoglycemia • Hypoglycemic intervals (time<3 mmol glucose) during CGM over 48 hours (day 2+3 after TM) • Free fatty acids
Test meal: On the morning of the 2nd day of the CGM, there is a standardized test meal in the trial center. This test meal (TM) consists of 95 g of whole-wheat bread, 20 g of margarine, 25 g of fruit preserves, 25 g of cheese, 200 ml of orange juice, 200 ml of milk mix with banana, strawberry or cocoa with a total of 560 Kcal. Blood is taken from the patient prior to the TM (after night-time fasting period of at least 8 hours). Subsequently, the TM should be eaten within 15 min. From the 1st bite, the time is measured, and after 2 h have elapsed, a 2nd blood collection is performed. During the TM and during the two hours thereafter, the patient should move as little as possible so as not to falsify the monitoring.
• HbA1c chromatographically by HLPC (device: TOSOH A1c) • Plasma glucose by enzymatic UV test HK (device: Selectra) • Creatinine in urine by PAP test (enzyme-photometrically) (device: Selectra) • Albumin in urine (spontaneous) by immunoturbidimetric method (device: Selectra) • Microalbuminuria (calculated: albumin/creatinine ratio) • Serum creatinine enzyme-photometrically by means of creatinine PAP test (device: Selectra) • ALAT, ASAT by optimized UV method according to IFCC (device: Selectra) • Insulin by ELISA (solid-phase enzyme immunoassay; device: Anthos) • C-peptide by ELISA (solid-phase enzyme immunoassay; device: Anthos) • Proinsulin (intact) (solid-phase enzyme immunoassay; device: Anthos) • Triglycerides by GPO-PAP method (device: Selectra) • HDL cholesterol by enzymatic test (device: Selectra) • LDL cholesterol by enzymatic test (device: Selectra) • Free fatty acids by photometric method (NEFA) (device: Selektra) • hsCRP by immunoturbidimetric method (device: Selectra) • PAI-1 (plasminogen activator inhibitor active antigen) bioimmunoassay • Leukocyte count by electronic counting • Pregnancy test (urine dipstick)
In the study in the previous examples, 75 patients (45 men, 30 women, mean age: 60.7±9.2 years) were examined, whose first diagnosis of type 2 diabetes dated back to less than 5 years and whose HbA1c level was between 6.5 and 8.5%. The patients were treated with either metformin (MET, 1000 mg b.i.d. (n=3)) or insulin glargine (GLA) q.d. just before bedtime (n=3). The insulin dose was adjusted for a target plasma glucose concentration (FPG) of ≦5.6 mmol/L according to a standardized titration algorithm. At the start and end of the study, the HbA1c level and the plasma glucose, proinsulin and C-peptide concentrations were determined. […] All the patients received a standardized test meal on the second day of the continuous glucose monitoring for comparison of the interindividual postprandial (pp) glucose excursions.

Compound	ratio of proinsulin to C-peptide	Insulin-C-peptide ratio - change, 2 h after test meal	Insulin-C-peptide ratio - change, Fasting	Proinsulin-C-peptide ratio - change, 2 h after test meal	Proinsulin-C-peptide ratio - change, Fasting	HOMA - change	Insulin-proinsulin ratio - change, 2 h after test meal	Insulin-proinsulin ratio - change, Fasting	C-peptide - change, 2 h after test meal	C-peptide - change, Fasting	Insulin - change, 2 h after test meal	Insulin - change, Fasting	Proinsulin - change, 2 h after test meal	Proinsulin - change, Fasting	Insulin-C-peptide ratio - visit 8, 2 h after test meal	Insulin-C-peptide ratio - visit 8, Fasting	Proinsulin-C-peptide ratio - visit 8, 2 h after test meal	Proinsulin-C-peptide ratio - visit 8, Fasting	HOMA - visit 8	Insulin-proinsulin ratio - visit 8, 2 h after test meal	other results
CN(C)C(=N)N=C(N)N [Metformin]	significant reduction	−38956.8	−25386.1	−1668.7	−1386.3	4.4 (19.5)	3.0 (8.4)	2.9 (7.6)	−0.1 (2.0) nmol/l	−0.3 (0.8) nmol/l	−11.1 (30.2) mU/l	−2.7 (3.6) mU/l	−6.9 (14.5) pmol/l	−3.2 (4.2) pmol/l	41915.2	25456.9	2458.1	2142.4	56.3 (34.5)	24.7 (27.1)	Insulin-proinsulin ratio - visit 8, Fasting: 16.7 (17.4); C-peptide - visit 8, 2 h after test meal: 7.9 (3.4) nmol/l; C-peptide - visit 8, Fasting: 2.7 (1.1) nmol/l; Insulin - visit 8, 2 h after test meal: 50.8 (39.7) mU/l; Insulin - visit 8, Fasting: 10.0 (6.0) mU/l; Proinsulin - visit 8, 2 h after test meal: 20.4 (19.9) pmol/l; Proinsulin - visit 8, Fasting: 5.8 (4.6) pmol/l
Insulin glargine	significant reduction	−24587.4	46799.3	−2496.6	−1174.8	77.2 (98.0)	8.2 (9.4)	16.4 (12.4)	−0.6 (2.4) nmol/l	−1.2 (1.1) nmol/l	6.5 (38.4) mU/l	2.7 (6.7) mU/l	−11.1 (26.8) pmol/l	−7.6 (10.8) pmol/l	59822.8	80748.4	3578.2	3537.8	127.9 (99.3)	20.7 (11.8)	beta-cell function (early treatment, compared to standard treatment with MET): improvement in beta-cell function; Insulin-proinsulin ratio - visit 8, Fasting: 24.5 (11.7); C-peptide - visit 8, 2 h after test meal: 6.7 (3.1) nmol/l; C-peptide - visit 8, Fasting: 1.6 (0.9) nmol/l; Insulin - visit 8, 2 h after test meal: 62.6 (51.8) mU/l; Insulin - visit 8, Fasting: 14.6 (8.8) mU/l; Proinsulin - visit 8, 2 h after test meal: 26.8 (29.0) pmol/l; Proinsulin - visit 8, Fasting: 5.4 (5.0) pmol/l
